Reference: patent US11458123B2 (Arvinas, Inc., priority 2016, dated 2022)

system: tau protein; assay: Tau protein in vitro degradation assay (Western blot, Tau-13 antibody); assay type: cell-based, human; details: SK-N-SH cells; 72 hours of incubation; tested at 300 nM, 100 nM, 33 nM and 11 nM; Western blot, Tau-13 antibody
Procedure, shortened: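 SK-N-SH cells, seeded ≥18 h beforehand, were incubated 72 h with tau PROTACs at 1000, 300 and 100 nM or at 300, 100, 33 and 11 nM. Lysates in protease-inhibitor buffer were resolved by SDS-PAGE; tau quantified by Western blot with Tau-13 antibody recognising all human tau forms.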

| Structure (SMILES) | Degradation activity* (highest amount of degradation observed at any dosage; tau protein remaining) | Degradation activity (tau protein remaining; highest amount of degradation observed at any dosage) |
| --- | --- | --- |
| Cn1c2ccncc2c2ccc(-c3ccc(OCCCCCOCCCCCOC4CN(c5ccc6c(c5)C(=O)N(C5CCC(=O)NC5=O)C6=O)C4)nc3)cc21 (stereo not shown) [Compound 79, 2-(2,6-dioxopiperidin-3-yl)-5-(3-((5-((5-((5-(5-methyl-5H-pyrido[4,3-b]indol-7-yl)pyridin-2-yl)oxy)pentyl)oxy)pentyl)oxy)azetidin-1-yl)isoindoline-1,3-dione] | A (≤50% tau protein remaining after 72 hours of incubation with the test compound) | – |
| Cn1c2ccncc2c2ccc(-c3ccc(OCCCOc4ccc(CCCOC5CN(c6ccc7c(c6)C(=O)N(C6CCC(=O)NC6=O)C7=O)C5)nc4)nc3)cc21 (stereo not shown) [Compound 168, 2-(2,6-dioxopiperidin-3-yl)-5-(3-(3-(5-(3-((5-(5-methyl-5H-pyrido[4,3-b]indol-7-yl)pyridin-2-yl)oxy)propoxy)pyridin-2-yl)propoxy)azetidin-1-yl)isoindoline-1,3-dione] | B (≤80% and >50% tau protein remaining after 72 hours of incubation with the test compound) | – |
| Cn1c2ccncc2c2ccc(-c3ccc(O[C@H]4C[C@@H](OCCCOCCCOC5CN(c6ccc7c(c6)C(=O)N(C6CCC(=O)NC6=O)C7=O)C5)C4)nc3)cc21 (stereo partly shown) [Compound 170, 2-(2,6-dioxopiperidin-3-yl)-5-(3-(3-(3-((1 s,3 s)-3-((5-(5-methyl-5H-pyrido[4,3-b]indol-7-yl)pyridin-2-yl)oxy)cyclobutoxy)propoxy)propoxy)azetidin-1-yl)isoindoline-1,3-dione] | – | A (≤50% tau protein remaining after 72 hours of incubation with the test compound) |
| Cn1c2ccncc2c2ccc(-c3cnc(OCCOCCOCCOCCOCCOc4ccc5c(c4)C(=O)N(C4CCC(=O)NC4=O)C5=O)cc3Cl)cc21 (stereo not shown) [Compound 113, 5-((14-((4-chloro-5-(5-methyl-5H-pyrido[4,3-b]indol-7-yl)pyridin-2-yl)oxy)-3,6,9,12-tetraoxatetradecyl)oxy)-2-(2,6-dioxopiperidin-3-yl)isoindoline-1,3-dione] | C (>80% tau protein remaining after 72 hours of incubation with the test compound) | – |
| Cn1c2ccncc2c2ccc(-c3ccc(O[C@H]4C[C@H](Oc5ccc(CCCOC6CN(c7ccc8c(c7)C(=O)N(C7CCC(=O)NC7=O)C8=O)C6)nc5)C4)nc3)cc21 (stereo partly shown) [Compound 156, 2-(2,6-dioxopiperidin-3-yl)-5-(3-(3-(5-((1r,3r)-3-((5-(5-methyl-5H-pyrido[4,3-b]indol-7-yl)pyridin-2-yl)oxy)cyclobutoxy)pyridin-2-yl)propoxy)azetidin-1-yl)isoindoline-1,3-dione] | C (>80% tau protein remaining after 72 hours of incubation with the test compound) | – |
| Cn1c2ccncc2c2ccc(-c3ccc(N4CCC(CCN5CCN(c6ccc7c(c6)CN(C6CCC(=O)NC6=O)C7=O)CC5)CC4)nc3)cc21 (stereo not shown) [Compound 128, 3-(5-(4-(2-(1-(5-(5-methyl-5H-pyrido[4,3-b]indol-7-yl)pyridin-2-yl)piperidin-4-yl)ethyl)piperazin-1-yl)-1-oxoisoindolin-2-yl)piperidine-2,6-dione] | C (>80% tau protein remaining after 72 hours of incubation with the test compound) | – |
| Cn1c2ccncc2c2ccc(-c3ccc(O[C@H]4C[C@H](OCCCOCCCOC5CN(c6ccc7c(c6)CN(C6CCC(=O)NC6=O)C7=O)C5)C4)nc3)cc21 (stereo partly shown) [Compound 177, 3-(5-(3-(3-(3-((1r,3r)-3-((5-(5-methyl-5H-pyrido[4,3-b]indol-7-yl)pyridin-2-yl)oxy)cyclobutoxy)propoxy)propoxy)azetidin-1-yl)-1-oxoisoindolin-2-yl)piperidine-2,6-dione] | – | A (≤50% tau protein remaining after 72 hours of incubation with the test compound) |
| Cn1c2ccncc2c2ccc(-c3ccc(OCCOCCOCCOCCOCCOCCOCCOc4ccc5c(c4)C(=O)N(C4CCC(=O)NC4=O)C5=O)nc3)cc21 (stereo not shown) [Compound 132, 2-(2,6-dioxopiperidin-3-yl)-5-((20-((5-(5-methyl-5H-pyrido[4,3-b]indol-7-yl)pyridin-2-yl)oxy)-3,6,9,12,15,18-hexaoxaicosyl)oxy)isoindoline-1,3-dione] | A (≤50% tau protein remaining after 72 hours of incubation with the test compound) | – |
| Cn1c2ccncc2c2ccc(-c3ccc(O[C@H]4C[C@H](Oc5ccc(C#CCCCCOc6ccc7c(c6)C(=O)N(C6CCC(=O)NC6=O)C7=O)nn5)C4)nc3)cc21 (stereo partly shown) [Compound 134, 2-(2,6-dioxopiperidin-3-yl)-5-((6-(6-((1r,3r)-3-((5-(5-methyl-5H-pyrido[4,3-b]indol-7-yl)pyridin-2-yl)oxy)cyclobutoxy)pyridazin-3-yl)hex-5-yn-1-yl)oxy)isoindoline-1,3-dione] | B (≤80% and >50% tau protein remaining after 72 hours of incubation with the test compound) | – |
| Cn1c2ccncc2c2ccc(-c3cnc(OCCOCCOCCOCCOCCOc4ccc5c(c4)C(=O)N(C4CCC(=O)NC4=O)C5=O)c(C(F)(F)F)c3)cc21 (stereo not shown) [Compound 67, 2-(2,6-dioxopiperidin-3-yl)-5-((14-((5-(5-methyl-5H-pyrido[4,3-b]indol-7-yl)-3-(trifluoromethyl)pyridin-2-yl)oxy)-3,6,9,12-tetraoxatetradecyl)oxy)isoindoline-1,3-dione] | A (≤50% tau protein remaining after 72 hours of incubation with the test compound) | – |
| Cn1c2ccncc2c2ccc(-c3ccc(O[C@H]4C[C@@H](C(=O)N5CC6(CC(OCCCCOc7ccc8c(c7)C(=O)N(C7CCC(=O)NC7=O)C8=O)C6)C5)C4)nc3)cc21 (stereo partly shown) [Compound 136, 2-(2,6-dioxopiperidin-3-yl)-5-(4-((2-((1 s,3 s)-3-((5-(5-methyl-5H-pyrido[4,3-b]indol-7-yl)pyridin-2-yl)oxy)cyclobutane-1-carbonyl)-2-azaspiro[3.3]heptan-6-yl)oxy)butoxy)isoindoline-1,3-dione] | C (>80% tau protein remaining after 72 hours of incubation with the test compound) | – |
| Cn1c2ccncc2c2ccc(-c3ccc(O[C@H]4C[C@H](OCCOc5ccc(OC6CN(c7ccc8c(c7)C(=O)N(C7CCC(=O)NC7=O)C8=O)C6)nc5)C4)nc3)cc21 (stereo partly shown) [Compound 155, 2-(2,6-dioxopiperidin-3-yl)-5-(3-((5-(2-((1r,3r)-3-((5-(5-methyl-5H-pyrido[4,3-b]indol-7-yl)pyridin-2-yl)oxy)cyclobutoxy)ethoxy)pyridin-2-yl)oxy)azetidin-1-yl)isoindoline-1,3-dione] | C (>80% tau protein remaining after 72 hours of incubation with the test compound) | – |
| Cc1ncsc1-c1ccc(CNC(=O)[C@@H]2C[C@@H](O)CN2C(=O)[C@H](C(C)C)N2Cc3ccccc3C2=O)c(OCCOCCOCCOc2ccc(-c3ccc4c(c3)[nH]c3ccncc34)cn2)c1 [Compound 187, (2S,4R)—N-(2-(2-(2-(2-((5-(5H-pyrido[4,3-b]indol-7-yl)pyridin-2-yl)oxy)ethoxy)ethoxy)ethoxy)-4-(4-methylthiazol-5-yl)benzyl)-4-hydroxy-1-((S)-3-methyl-2-(1-oxoisoindolin-2-yl)butanoyl)pyrrolidine-2-carboxamide] | – | C (>80% tau protein remaining after 72 hours of incubation with the test compound) |
| Cn1c2ccncc2c2ccc(-c3ccc(O[C@H]4C[C@H](Oc5ccc(C#CCN6CC(Oc7ccc8c(c7)C(=O)N(C7CCC(=O)NC7=O)C8=O)C6)nc5)C4)nc3)cc21 (stereo partly shown) [Compound 152, 2-(2,6-dioxopiperidin-3-yl)-5-((1-(3-(5-((1r,3r)-3-((5-(5-methyl-5H-pyrido[4,3-b]indol-7-yl)pyridin-2-yl)oxy)cyclobutoxy)pyridin-2-yl)prop-2-yn-1-yl)azetidin-3-yl)oxy)isoindoline-1,3-dione] | A (≤50% tau protein remaining after 72 hours of incubation with the test compound) | – |
| O=C1CCC(N2C(=O)c3ccc(N4CC(OCCCOCCCO[C@H]5C[C@H](Oc6ncc(-c7ccc8c(c7)[nH]c7ccncc78)cc6C(F)(F)F)C5)C4)cc3C2=O)C(=O)N1 (stereo partly shown) [Compound 148, 5-(3-(3-(3-((1r,3r)-3-((5-(5H-pyrido[4,3-b]indol-7-yl)-3-(trifluoromethyl)pyridin-2-yl)oxy)cyclobutoxy)propoxy)propoxy)azetidin-1-yl)-2-(2,6-dioxopiperidin-3-yl)isoindoline-1,3-dione] | B (≤80% and >50% tau protein remaining after 72 hours of incubation with the test compound) | – |
| O=C1CCC(N2C(=O)c3ccc(N4CC(OCC#Cc5ccc(O[C@H]6C[C@H](Oc7ccc(-c8ccc9c(c8)[nH]c8ccncc89)cn7)C6)cn5)C4)cc3C2=O)C(=O)N1 (stereo partly shown) [Compound 194, 5-(3-((3-(5-((1r,3r)-3-((5-(5H-pyrido[4,3-b]indol-7-yl)pyridin-2-yl)oxy)cyclobutoxy)pyridin-2-yl)prop-2-yn-1-yl)oxy)azetidin-1-yl)-2-(2,6-dioxopiperidin-3-yl)isoindoline-1,3-dione] | – | C (>80% tau protein remaining after 72 hours of incubation with the test compound) |
